Assay results as given in patent publication US9458123B2, “Methods, pharmaceutical compositions, therapeutic systems, and compounds for treating B cell malignancies” (University of Rochester, priority 2012, dated 2016).

Legend:
[1] = system: IκBα phosphorylation by RANKL in RAW264.7 cells; experiment: IκBα phosphorylation after RANKL, western blot; type: cell-based; details: RAW264.7, RANKL 15 ng/ml
Experimental: SUDHL-6, RAW264.7, and MEF cells were treated with NSC697923 or DMSO (control) for 1 hour before being stimulated with the PMA (100 ng/ml), RANKL (15 ng/ml), and LPS (1.5 μg/ml) for the indicated times. The levels of IκBα phosphorylation in the indicated samples were assessed by western blotting.

Ubc13 = molecular target: T1, Ubc13 (Homo sapiens, UniProt P61088); experiment: In vitro Ubc13~Ub thioester conjugate formation; type: biochemical; details: E1, Ubc13-Uev1A, ubiquitin, ATP
T1 construct: purchased Boston Biochem Inc E2-600 (Ubc13); E2-662 (Uev1A)
T1 sequence (P61088 whole entry): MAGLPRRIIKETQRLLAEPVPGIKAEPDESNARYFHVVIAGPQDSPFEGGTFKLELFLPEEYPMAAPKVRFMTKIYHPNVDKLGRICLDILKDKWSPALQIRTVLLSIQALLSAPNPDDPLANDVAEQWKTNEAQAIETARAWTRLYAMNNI
T1 sequence (Q13404 whole entry partner): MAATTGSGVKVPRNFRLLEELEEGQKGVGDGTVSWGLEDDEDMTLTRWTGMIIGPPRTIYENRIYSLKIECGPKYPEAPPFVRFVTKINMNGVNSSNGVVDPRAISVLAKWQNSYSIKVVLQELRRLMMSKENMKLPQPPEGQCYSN
Experimental: Purified GST or GST-Ubc13 fusion proteins were incubated with the cell extract prepared from OCI-Ly10 cells with or without the presence of NSC697923 as indicated. The amounts of Uev1A protein associated with GST or GST-Ubc13 were analyzed by western blotting. The first lane was loaded with 8% of the input cell lysate. […] The assay was carried out as described in FIG. 4A, except that the loading buffer for SDS-PAGE gel contains no reducing agent, unless otherwise specified, and the reaction was analyzed by western blotting with a Ubc13-specific antibody. […] The assay was carried out as in FIG. 5B, except that UbcHSc, instead of Ubc13 and Uev1A, was used in the ubiquitination reaction and that a UbcHSc antibody was used for western blot analysis.
For detecting the E2-ubiquitin (Ubc13˜Ub or UbcH5c˜Ub) thioester conjugates, the reactions were carried out as described above without GST-TRAF6. The reactions were terminated with the SDS-sample buffer without a reducing agent unless specified. The products were analyzed by western blotting with an anti-Ubc13 or anti-UbcHSc antibody as indicated.

[2] = system: constitutive NF-κB signaling in OCI-Ly10 cells; experiment: Constitutive NF-κB signaling in ABC DLBCL cells, western blot; type: cell-based; details: 3.5 hours
Experimental: OCI-Ly10 cells were treated with the indicated concentrations of NSC697923 for 3 hours. The levels of Ubc13˜Ub conjugate were analyzed by western blotting using a Ubc13-specific antibody as described in FIG. 4B. […] OCI-Ly10 cells were treated with DMSO (0.1%) or the indicated concentrations of NSC697923 for 3.5 hours. The levels of the indicated proteins were analyzed by western blotting with the respective antibodies.

OCI-Ly10 cells = experiment: Apoptosis of OCI-Ly10 cells (western blot, 7AAD/annexin V flow cytometry); type: cell-based
Experimental: The indicated ABC DLBCL cells were seeded at 3×10^5 cells/ml in 6-well plates and cultured in the presence of DMSO (0.2%, control) or various concentrations of NSC697923 for 24 hours. The live and dead cells were counted using the trypan blue exclusion assay. Shown are the means from three separate experiments. The average number of live cells in the control was set at 100. […] The levels of the indicated proteins were analyzed by western blotting. For caspase 3 detection, a mixture of an antibody for the uncleaved form and an antibody specific for the cleaved form was used. In FIG. 7C, OCI-Ly10 cells were treated as in FIG. 7A. The apoptotic cells (Annexin V positive cells) were measured by flow cytometry as described in Example 1 infra. A representative result from three independent experiments is depicted. […] BrdU was then added into the culture medium for 30 minutes before the cell-cycle distribution of the treated cells was analyzed as described in Example 1 infra. Shown are the averages from two independent experiments. […] BrdU was then added into the culture medium for 30 minutes before the cell-cycle distribution of the treated cells was analyzed as described in Example 1 infra. Shown are the averages from two independent experiments.
Apoptosis was assayed using the 7AAD/annexin V apoptosis kit (BD Bioscience) as previously described (Kim et al., “Protein Kinase C-Associated Kinase is Required for NF-kappaB Signaling and Survival in Diffuse Large B-Cell Lymphoma Cells,” Blood 111:1644-1653 (2008), which is hereby incorporated by reference in its entirety). Analysis of the cell cycle distribution of the treated cells was carried out with propidium iodide (PI) and BrdU double staining as previously described (DeRan et al., “Assessing G1-to-S-Phase Progression after Genotoxic Stress,” Methods Mol. Biol. 782:221-230 (2011) and Su et al., “DNA Damage Induces Downregulation of Histone Gene Expression Through the G1 Checkpoint Pathway,” EMBO. J. 23:1133-1143 (2004), each of which is hereby incorporated by reference in its entirety).

Cc1ccc(S(=O)(=O)c2ccc([N+](=O)[O-])o2)cc1 [NSC697923, 2-nitro-5-tosylfuran]
IκBα phosphorylation by RANKL [1]: inhibited
formation of Ubc13~Ub thioester conjugate (Ubc13): inhibited formation of this thioester conjugate
expression of Mc1-1 [2]: is inhibited
expression of p100 [2]: is inhibited
phosphorylation of IKK [2]: inhibited phosphorylation
phosphorylation of IκBα [2]: inhibited phosphorylation
PARP (OCI-Ly10 cells; 5 hours): cleavage of PARP
caspase 3 (OCI-Ly10 cells; 5 hours): activation of caspase 3
annexin V-positive cells (OCI-Ly10 cells; 24 hours): increase in annexin V-positive cells
